In article PMC9017385, “Pharmacokinetics of Temsavir, the Active Moiety of the HIV-1 Attachment Inhibitor Prodrug, Fostemsavir, Coadministered with Cobicistat, Etravirine, Darunavir/Cobicistat, or Darunavir/Ritonavir with or without Etravirine in Healthy Participants” (Antimicrobial Agents and Chemotherapy, 2022):

How the values were obtained:
[1] = Study 206281: plasma PK of DRV, RTV and ETR with or without FTR
Procedure: (§1) Participants were randomly assigned to one of three cohorts per a computer-generated randomization scheme. • Cohort 1: Participants received FTR at 600 mg twice daily (BID) on days 1 to 4. […] After a 2-day washout (days 5 and 6), participants received ETR at 200 mg BID for 10 days (days 7 to 16) followed by FTR at 600 mg BID with ETR at 200 mg BID for 10 days (days 17 to 26). • Cohort 3: Participants received FTR at 600 mg BID on days 1 to 4.
(§2) Eligible participants were admitted to the clinical facility on day −1 of each study. […] Physical examinations, measurements of vital signs, 12-lead ECGs, and clinical laboratory evaluations were performed, and participants were closely monitored for AEs and SAEs, throughout both studies.
(§3) (i) Bioanalytical methods and PK analysis. […] The lower limit of quantification and the upper limit of quantification for the analysis of TMR in both studies were 5 ng/mL and 5,000 ng/mL, respectively.
(§4) (ii) PK analysis. For both studies, individual participant PK parameter values were derived by noncompartmental methods with a validated PK analysis program using actual times. […] Cmax, Tmax, C12, and C24 were recorded directly from experimental observations and AUCtau was calculated by mixed log-linear trapezoidal summations.
(§5) SAS software version 9.2 (SAS Institute, Inc., Cary, North Carolina) was used for all statistical analyses, tabulations, and graphical presentations. For all treatment comparisons, a linear mixed-effect model was fitted to the log-transformed data with treatment as fixed effect and measurements within each participant as repeated measures, for use in the estimation of effects and the construction of CIs. Point estimates and 90% CIs for differences on the log scale were exponentiated to obtain estimates for GMRs and respective 90% CIs on the original scale. […] FTR administered alone was the reference treatment for both studies.

[2] = Study 206281: safety, adverse events; assay type: in vivo, human; settings: A fostemsavir 600 mg BID, B DRV/r 600/100 mg BID, C ETR 200 mg BID
Procedure: as §1, §2

[3] = Study 206285: safety, adverse events
Procedure: Participants were sequentially enrolled to two cohorts. • Cohort 1: Participants received FTR at 600 mg BID on days 1 to 4. […] Participants then received FTR at 600 mg BID plus COBI at 150 mg QD on days 5 to 14 (Fig. 4B).

[4] = tested on: HIV-1; design: method as in PMID 32212519; settings: through 8 days of FTR functional monotherapy with failing regimen; HTE HIV-1-infected participants, randomized cohort; P < 0.0001; cited from earlier work
[5] = tested on: breast cancer resistance protein (BCRP); settings: not told; cited from earlier work
[6] = tested on: P-glycoprotein (P-gp); design: method as in earlier work; settings: preclinical studies; cited from earlier work
[7] = Study 206281: plasma PK of temsavir after FTR alone or with DRV/r, ETR, or DRV/r plus ETR; assay type: in vivo, human
Procedure: as §1, §2, §3, §4, §5

[8] = Study 206285: plasma PK of temsavir after FTR alone or with DRV/c or COBI; assay type: in vivo, human
Procedure: as §2, §3, §4, §5

[9] = QT prolongation at supratherapeutic FTR dose; assay type: in vivo, human; settings: supratherapeutic FTR 2,400 mg BID
[10] = FTR plus DRV/r plus ETR vs DRV/r plus ETR, study 206281 cohort 3
[11] = FTR with DRV/r vs DRV/r, study 206281 cohort 1
[12] = DRV/r plus ETR with FTR vs DRV/r plus ETR, study 206281 cohort 3
[13] = ETR with FTR vs ETR alone, study 206281 cohort 2
[14] = FTR coadministered with DRV/r and ETR vs FTR alone, study 206281 cohort 3
[15] = FTR coadministered with DRV/r vs FTR alone, study 206281 cohort 1
[16] = FTR coadministered with ETR vs FTR alone, study 206281 cohort 2
[17] = FTR coadministered with ETR vs FTR alone, study 206281 cohort 2, listed as TMR
[18] = FTR coadministered with COBI vs FTR alone, study 206285 cohort 2
[19] = FTR coadministered with DRV and COBI (DRV/c) vs FTR alone, study 206285 cohort 1
[20] = FTR with DRV/r + ETR vs DRV/r plus ETR, study 206281 cohort 3

SMILES: CC(C)c1nc(CN(C)C(=O)N[C@H](C(=O)N[C@@H](Cc2ccccc2)C[C@H](O)[C@H](Cc2ccccc2)NC(=O)OCc2cncs2)C(C)C)cs1 [RTV]
- increase in RTV AUCtau [1, 10]: 9%
- increase in RTV C12 [1, 10]: 7%
- increase in RTV Cmax [1, 10]: 14%
- change in RTV Cmax [1, 11]: no meaningful change
- increase in RTV AUCtau [1, 11]: 15%
- increase in RTV C12 [1, 11]: 19%

SMILES: Cc1cc(C#N)cc(C)c1Oc1nc(Nc2ccc(C#N)cc2)nc(N)c1Br [ETR, reference compound]
- Abdominal distension [2]: 0 No. of patients (%)
- Aphthous stomatitis [2]: 0 No. of patients (%)
- Back pain [2]: 0 No. of patients (%)
- Diarrhea [2]: 0 No. of patients (%)
- Dizziness [2]: 0 No. of patients (%)
- Drug eruption [2]: 2 (14.3) No. of patients (%)
- Dry mouth [2]: 0 No. of patients (%)
- Fatigue [2]: 0 No. of patients (%)
- Headache [2]: 0 No. of patients (%)
- Muscle spasms [2]: 0 No. of patients (%)
- Nausea [2]: 0 No. of patients (%)
- Pruritus [2]: 0 No. of patients (%)
- Pruritus generalized [2]: 1 (7.1) No. of patients (%)
- Somnolence [2]: 0 No. of patients (%)
- Subjects with any AE [2]: 4 (28.6) No. of patients (%)
- increase in ETR AUCtau [1, 12]: 28%
- increase in ETR C12 [1, 12]: 28%
- increase in ETR Cmax [1, 12]: 18%
- increase in ETR AUCtau [1, 13]: 11%
- increase in ETR C12 [1, 13]: 14%
- increase in ETR Cmax [1, 13]: 11%
- AUC ([1]; human, plasma, oral, 200 mg): 7820 ng·h/mL
- Cmax ([1]; human, plasma, oral, 200 mg): 846 ng/mL
- concentration at 12 h ([1]; human, plasma, oral, 200 mg): 457 ng/mL

SMILES: COc1cnc(-n2cnc(C)n2)c2c1c(C(=O)C(=O)N1CCN(C(=O)c3ccccc3)CC1)cn2COP(=O)(O)O [Fostemsavir]
- Back pain ([3]; study 206285 cohort 1): 1 (6.3) No. of patients (%)
- Constipation ([3]; study 206285 cohort 1): 0 No. of patients (%)
- Cough ([3]; study 206285 cohort 1): 0 No. of patients (%)
- Headache ([3]; study 206285 cohort 1): 3 (18.8) No. of patients (%)
- Myalgia ([3]; study 206285 cohort 1): 0 No. of patients (%)
- Nausea ([3]; study 206285 cohort 1): 1 (6.3) No. of patients (%)
- Neutrophil count decreased ([3]; study 206285 cohort 1): 0 No. of patients (%)
- Oropharyngeal pain ([3]; study 206285 cohort 1): 2 (12.5) No. of patients (%)
- Pain ([3]; study 206285 cohort 1): 0 No. of patients (%)
- Participants with AE ([3]; study 206285 cohort 1): 6 (37.5) No. of patients (%)
- Vomiting ([3]; study 206285 cohort 1): 1 (6.3) No. of patients (%)
- WBC decreased ([3]; study 206285 cohort 1): 0 No. of patients (%)
- Back pain ([3]; study 206285 cohort 2): 1 (6.3) No. of patients (%)
- Constipation ([3]; study 206285 cohort 2): 0 No. of patients (%)
- Cough ([3]; study 206285 cohort 2): 0 No. of patients (%)
- Headache ([3]; study 206285 cohort 2): 1 (6.3) No. of patients (%)
- Myalgia ([3]; study 206285 cohort 2): 0 No. of patients (%)
- Nausea ([3]; study 206285 cohort 2): 0 No. of patients (%)
- Neutrophil count decreased ([3]; study 206285 cohort 2): 0 No. of patients (%)
- Oropharyngeal pain ([3]; study 206285 cohort 2): 0 No. of patients (%)
- Pain ([3]; study 206285 cohort 2): 0 No. of patients (%)
- Participants with AE ([3]; study 206285 cohort 2): 3 (18.8) No. of patients (%)
- Vomiting ([3]; study 206285 cohort 2): 0 No. of patients (%)
- WBC decreased ([3]; study 206285 cohort 2): 0 No. of patients (%)
- Abdominal distension [2]: 0 No. of patients (%)
- Aphthous stomatitis [2]: 0 No. of patients (%)
- Back pain [2]: 0 No. of patients (%)
- Diarrhea [2]: 0 No. of patients (%)
- Dizziness [2]: 0 No. of patients (%)
- Drug eruption [2]: 0 No. of patients (%)
- Dry mouth [2]: 1 (2.2) No. of patients (%)
- Fatigue [2]: 0 No. of patients (%)
- Headache [2]: 1 (2.2) No. of patients (%)
- Muscle spasms [2]: 0 No. of patients (%)
- Nausea [2]: 1 (2.2) No. of patients (%)
- Pruritus [2]: 1 (2.2) No. of patients (%)
- Pruritus generalized [2]: 0 No. of patients (%)
- Somnolence [2]: 0 No. of patients (%)
- Subjects with any AE [2]: 6 (13.0) No. of patients (%)
- adjusted mean decline in HIV-1 RNA [4]: 0.8 log10 copies/mL

SMILES: COc1cnc(-n2cnc(C)n2)c2[nH]cc(C(=O)C(=O)N3CCN(C(=O)c4ccccc4)CC3)c12 [Temsavir]
- BCRP substrate [5]: substrate
- P-glycoprotein (P-gp) substrate [6]: substrate
- increase in TMR AUCtau [7, 14]: 34%
- increase in TMR C12 (Ctau in abstract) [7, 14]: 33%
- increase in TMR Cmax [7, 14]: 53%
- increase in TMR AUCtau [7, 15]: 63%
- increase in TMR C12 (Ctau in abstract) [7, 15]: 88%
- increase in TMR Cmax [7, 15]: 52%
- decrease in TMR exposures ([7]; FTR coadministered with ETR): approximately 50%
- decrease in TMR AUCtau [7, 16]: 50%
- decrease in TMR C12 (Ctau in abstract) [7, 16]: ~50%
- decrease in TMR Cmax [7, 16]: ~50%
- decrease in TMR C12 (Ctau in abstract) [7, 17]: 52%
- decrease in TMR Cmax [7, 17]: 48%
- increase in TMR AUCtau [8, 18]: 93%
- increase in TMR C12 (Ctau in abstract) [8, 18]: 136%
- increase in TMR Cmax [8, 18]: 71%
- increase in TMR AUCtau [8, 19]: 97%
- increase in TMR C12 (Ctau in abstract) [8, 19]: 124%
- increase in TMR Cmax [8, 19]: 79%
- fold by which exposures with TMR Cmax-driven QT prolongation exceed geometric mean TMR exposures of the current studies [9]: > 2 fold

SMILES: CC(C)CN(C[C@@H](O)[C@H](Cc1ccccc1)NC(=O)O[C@H]1CO[C@H]2OCC[C@H]21)S(=O)(=O)c1ccc(N)cc1 [DRV]
- decrease in DRV AUCtau [1, 20]: 6%
- decrease in DRV C12 [1, 20]: 12%
- decrease in DRV Cmax [1, 20]: 5%
